# Assay results as given in patent US20230079819A1, “COMPOUNDS AND USES THEREOF” (Foghorn Therapeutics Inc., priority 2019, published 2023).
# Like-named read-outs stand apart in the source and are kept apart here.
# What was measured:
# [1] = target: T1, BRM (Homo sapiens, UniProt P51531); experiment: ATPase catalytic activity of BRM, ADP-Glo in vitro biochemical assay; details: 30 nM BRM, 400 μM ATP
# T1 construct: made in house; host or cells: High Five insect cells
# [2] = target: T2, BRG-1 (Homo sapiens, UniProt P51532); experiment: ATPase catalytic activity of BRG-1, ADP-Glo in vitro biochemical assay; details: 30 nM BRG-1, 400 μM ATP
# T2 construct: made in house; host or cells: High Five insect cells
# T2 sequence (P51532 whole entry): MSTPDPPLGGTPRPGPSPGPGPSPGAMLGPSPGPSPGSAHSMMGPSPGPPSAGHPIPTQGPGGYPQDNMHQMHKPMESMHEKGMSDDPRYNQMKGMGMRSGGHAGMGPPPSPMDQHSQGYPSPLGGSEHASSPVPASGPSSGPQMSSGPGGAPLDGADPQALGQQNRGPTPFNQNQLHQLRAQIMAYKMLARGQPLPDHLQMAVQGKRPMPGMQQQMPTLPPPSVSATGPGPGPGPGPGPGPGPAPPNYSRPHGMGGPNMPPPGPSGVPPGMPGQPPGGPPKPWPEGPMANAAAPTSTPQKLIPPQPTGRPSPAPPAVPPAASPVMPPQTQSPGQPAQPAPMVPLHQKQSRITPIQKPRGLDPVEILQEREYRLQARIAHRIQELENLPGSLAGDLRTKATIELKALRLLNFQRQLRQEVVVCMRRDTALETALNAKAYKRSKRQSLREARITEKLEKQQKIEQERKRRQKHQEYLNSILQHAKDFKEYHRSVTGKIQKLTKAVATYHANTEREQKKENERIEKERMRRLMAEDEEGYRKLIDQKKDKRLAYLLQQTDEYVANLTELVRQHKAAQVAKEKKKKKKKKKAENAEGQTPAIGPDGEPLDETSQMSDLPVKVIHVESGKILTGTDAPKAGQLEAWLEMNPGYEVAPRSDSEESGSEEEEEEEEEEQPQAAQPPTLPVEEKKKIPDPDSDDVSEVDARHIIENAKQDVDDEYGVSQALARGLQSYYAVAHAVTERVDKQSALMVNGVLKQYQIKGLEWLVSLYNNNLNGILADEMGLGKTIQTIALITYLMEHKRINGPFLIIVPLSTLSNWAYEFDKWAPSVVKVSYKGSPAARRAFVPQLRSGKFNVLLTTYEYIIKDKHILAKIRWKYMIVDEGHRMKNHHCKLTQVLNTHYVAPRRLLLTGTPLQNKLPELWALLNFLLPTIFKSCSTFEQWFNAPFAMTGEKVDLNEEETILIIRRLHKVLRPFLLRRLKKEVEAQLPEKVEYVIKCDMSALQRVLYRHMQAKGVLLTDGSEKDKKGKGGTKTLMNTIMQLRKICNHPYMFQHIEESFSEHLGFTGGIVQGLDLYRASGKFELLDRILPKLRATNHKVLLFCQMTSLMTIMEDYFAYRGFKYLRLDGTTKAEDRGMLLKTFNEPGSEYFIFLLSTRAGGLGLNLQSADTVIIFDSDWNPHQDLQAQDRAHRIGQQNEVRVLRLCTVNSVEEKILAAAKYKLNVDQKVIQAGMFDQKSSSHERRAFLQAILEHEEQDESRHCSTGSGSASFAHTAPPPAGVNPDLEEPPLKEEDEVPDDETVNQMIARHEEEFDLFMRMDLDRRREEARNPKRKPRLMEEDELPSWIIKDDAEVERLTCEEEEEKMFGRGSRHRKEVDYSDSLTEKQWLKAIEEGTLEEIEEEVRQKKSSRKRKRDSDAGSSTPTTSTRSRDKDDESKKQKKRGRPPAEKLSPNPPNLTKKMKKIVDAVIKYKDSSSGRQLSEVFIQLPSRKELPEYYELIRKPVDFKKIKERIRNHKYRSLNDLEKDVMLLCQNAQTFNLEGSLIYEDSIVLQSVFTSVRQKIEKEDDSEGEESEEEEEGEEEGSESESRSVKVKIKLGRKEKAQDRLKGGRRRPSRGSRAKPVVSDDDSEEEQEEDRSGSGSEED
# [3] = ATPase catalytic activity, read-out: BRM IP50
# [4] = ATPase catalytic activity, read-out: BRG1 IP50
# [5] = ATPase catalytic activity, read-out: BRM IP50 (μM)*
# [6] = ATPase catalytic activity, read-out: BRG1 IP50 (μM)*
# T1 sequence (P51531 whole entry): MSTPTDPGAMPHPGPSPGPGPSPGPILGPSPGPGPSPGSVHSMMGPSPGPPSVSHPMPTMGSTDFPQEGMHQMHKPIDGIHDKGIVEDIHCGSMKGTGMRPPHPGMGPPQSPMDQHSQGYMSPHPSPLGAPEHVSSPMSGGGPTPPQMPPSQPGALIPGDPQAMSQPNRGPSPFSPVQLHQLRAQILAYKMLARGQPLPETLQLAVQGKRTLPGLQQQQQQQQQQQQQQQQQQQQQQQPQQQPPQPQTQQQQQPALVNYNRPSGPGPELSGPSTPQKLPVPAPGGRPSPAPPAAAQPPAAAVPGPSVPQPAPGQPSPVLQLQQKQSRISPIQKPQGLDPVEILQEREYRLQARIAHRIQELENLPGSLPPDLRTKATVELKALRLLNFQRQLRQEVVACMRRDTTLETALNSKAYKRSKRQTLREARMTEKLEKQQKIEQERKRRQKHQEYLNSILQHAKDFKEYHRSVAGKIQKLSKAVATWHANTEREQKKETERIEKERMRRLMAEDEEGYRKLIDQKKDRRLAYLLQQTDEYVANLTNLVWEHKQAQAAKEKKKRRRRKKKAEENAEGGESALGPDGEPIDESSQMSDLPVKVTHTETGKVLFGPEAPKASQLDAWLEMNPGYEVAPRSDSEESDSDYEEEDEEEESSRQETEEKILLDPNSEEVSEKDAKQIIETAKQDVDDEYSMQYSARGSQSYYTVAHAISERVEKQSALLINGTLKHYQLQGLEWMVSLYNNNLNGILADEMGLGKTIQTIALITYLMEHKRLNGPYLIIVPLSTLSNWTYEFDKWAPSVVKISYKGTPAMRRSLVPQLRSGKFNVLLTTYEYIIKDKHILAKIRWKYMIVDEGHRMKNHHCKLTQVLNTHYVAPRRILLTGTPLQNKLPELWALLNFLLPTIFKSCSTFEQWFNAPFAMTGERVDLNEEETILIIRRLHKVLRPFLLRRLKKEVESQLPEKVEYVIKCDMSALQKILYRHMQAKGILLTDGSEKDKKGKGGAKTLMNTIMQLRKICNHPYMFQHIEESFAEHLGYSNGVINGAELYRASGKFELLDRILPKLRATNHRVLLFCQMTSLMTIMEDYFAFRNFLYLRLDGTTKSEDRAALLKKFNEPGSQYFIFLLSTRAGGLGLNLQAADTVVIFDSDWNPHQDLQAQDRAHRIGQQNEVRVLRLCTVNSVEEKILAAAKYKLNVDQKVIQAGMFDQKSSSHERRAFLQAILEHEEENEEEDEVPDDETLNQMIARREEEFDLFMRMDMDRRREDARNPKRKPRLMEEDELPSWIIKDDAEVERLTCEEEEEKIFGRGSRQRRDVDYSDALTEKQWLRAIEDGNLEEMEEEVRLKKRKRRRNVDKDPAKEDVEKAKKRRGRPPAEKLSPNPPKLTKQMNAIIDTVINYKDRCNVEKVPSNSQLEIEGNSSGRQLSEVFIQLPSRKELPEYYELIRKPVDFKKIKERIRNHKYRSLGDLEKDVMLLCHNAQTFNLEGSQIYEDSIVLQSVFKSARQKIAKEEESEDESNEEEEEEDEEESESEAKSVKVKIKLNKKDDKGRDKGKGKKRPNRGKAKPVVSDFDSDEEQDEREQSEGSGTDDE
"IC50 [1, 3] [µM]","IC50 [2, 4] [µM]","IC50 [1, 5] [µM]","IC50 [2, 6] [µM]",SMILES,further results
> 0.01,> 0.01,,,CS(=O)(=O)n1ccc(C(=O)NCC(=O)Nc2nc(-c3cccc(C4CC(F)(F)C4)c3)cs2)c1 [Compound 472],
> 0.01,> 0.01,,,CS(=O)(=O)n1ccc(C(=O)NCC(=O)Nc2nc(-c3cccc(N4CC[C@H](C(F)F)C4)n3)cs2)c1 [Compound 698],
> 0.1,> 0.1,,,"Cc1ccc(Cl)c(-c2cc(-c3csc(NC(=O)CNC(=O)c4ccn(S(C)(=O)=O)c4)n3)ccc2C)n1 [Compound 401, N-(2-((4-(3-(3-chloro-6-methylpyridin-2-yl)-4-methylphenyl)thiazol-2-yl)amino)-2-oxoethyl)-1-(methylsulfonyl)-1H-pyrrole-3-carboxamide]",
> 0.01,> 0.01,,,C[C@@H]1CO[C@@H]2CN(c3cccc(-c4csc(NC(=O)CNC(=O)c5ccn(C(C)(C)C)c5)n4)n3)C[C@H]12 (racemic) [Compound 649],
> 0.1,> 0.1,,,CC(C)(C)n1ccc(C(=O)NCC(=O)Nc2nc(-c3cccc(OC(F)F)n3)cs2)c1 [Compound 512],
> 0.01,> 0.01,,,CO[C@H]1C[C@@H](c2cccc(-c3csc(NC(=O)CNC(=O)c4ccn(S(C)(=O)=O)c4)n3)c2)C1 [Compound 479],
< 0.01,< 0.01,,,CS(=O)(=O)n1ccc(C(=O)NCC(=O)Nc2nc(-c3cc(F)c4c(c3)OCO4)cs2)c1 [Compound 616],
> 0.1,> 0.1,,,CS(=O)(=O)n1ccc(C(=O)NCC(=O)Nc2nc(-c3cccc(N4CCN(C5COC5)CC4)c3)cs2)c1 [Compound 451],
> 0.01,> 0.1,,,"C[C@@H]1CCN(c2cccc(-c3csc(NC(=O)CNC(=O)c4ccn(C(C)(C)C)c4)n3)n2)C[C@H]1F (racemic) [Compound 702, 1-tert-butyl-N-[2-[[4-[6-[(3S,4R)-3-fluoro-4-methyl-1-piperidyl]-2-pyridyl]thiazol-2-yl]amino]-2-oxo-ethyl]pyrrole-3-carboxamide]",
> 0.01,> 0.01,,,COC[C@H](NC(=O)c1ccn(C(C)(C)C)c1)C(=O)Nc1nc(-c2ccc3ccn(C(F)F)c(=O)c3c2)cs1 [Compound 583],
> 0.01,> 0.01,,,COC[C@H](NC(=O)c1ccn(C(C)(C)C)c1)C(=O)Nc1nc(-c2ccc3c(=O)n(C)ccc3c2)cs1 [Compound 551],
> 0.1,> 0.1,,,CC(C)(C)n1ccc(C(=O)NCC(=O)Nc2nc(-c3cccc(N4CC5CN(c6ccncc6)CC5C4)n3)cs2)c1 (stereo not shown) [Compound 660],
< 0.01,> 0.01,,,COC[C@H](NC(=O)c1ccn(S(C)(=O)=O)c1)C(=O)Nc1nc(-c2cccc(N3CC[C@@H]4OCC[C@H]4C3)n2)cs1 [Compound 775],
> 0.01,> 0.01,,,C[C@H](NC(=O)c1ccn(S(C)(=O)=O)c1)C(=O)Nc1nc(-c2cccc(-c3ccn(C)n3)c2)cs1 [Compound 591],
> 0.01,> 0.01,,,CN(C)C(=O)C(C)(C)n1ccc(-c2cccc(-c3csc(NC(=O)CNC(=O)c4ccn(S(C)(=O)=O)c4)n3)c2)n1 [Compound 418],
> 0.01,> 0.1,,,C[C@@H]1CN(c2cccc(-c3csc(NC(=O)CNC(=O)c4cn(C5(C#N)CC5)cn4)n3)n2)C[C@H](C)O1 [Compound 781],

# Continued, molecule first:
SMILES,"IC50 [1, 3] [µM]","IC50 [2, 4] [µM]","IC50 [1, 5] [µM]","IC50 [2, 6] [µM]",further results
"C[C@@H]1CN(c2cccc(-c3csc(NC(=O)CNC(=O)c4ccn(S(C)(=O)=O)c4)n3)c2)CCO1 [Compound 88, (R)—N-(2-((4-(3-(2-methylmorpholino)phenyl)thiazol-2-yl)amino)-2-oxoethyl)-1-(methylsulfonyl)-1H-pyrrole-3-carboxamide]",,,< 0.01,< 0.01,
"CS(=O)(=O)n1cc(C(=O)NCC(=O)Nc2nc(-c3cccc(-c4ccncc4)c3)cs2)cn1 [Compound 44, 1-(methylsulfonyl)-N-(2-oxo-2-((4-(3-(pyridin-4-yl)phenyl)thiazol-2-yl)amino)ethyl)-1H-pyrazole-4-carboxamide]",,,> 0.01,> 0.1,
CN1CCOc2ccc(-c3csc(NC(=O)CNC(=O)c4ccn(C(C)(C)C#N)n4)n3)cc21 [Compound 787],,,,,IC50 ([1]; read-out: BRM IP50): > 0.01 µM; IC50 ([2]; read-out: BRG1 IP50): > 0.01 µM
CO[C@@H]1CN(c2cccc(-c3csc(NC(=O)CNC(=O)c4ccn(S(C)(=O)=O)c4)n3)c2)CC[C@@H]1O (racemic) [Compound 158],,,> 0.01,> 0.01,
CO[C@H]1C[C@@H](Oc2cccc(-c3csc(NC(=O)CNC(=O)c4ccn(S(C)(=O)=O)c4)n3)c2)C1 [Compound 254],,,> 0.01,> 0.01,
N#CC1(n2ccc(C(=O)NCC(=O)Nc3nc(-c4cc(F)c5c(c4)OCC5)cs3)n2)CC1 [Compound 803],,,,,IC50 ([1]; read-out: BRM IP50): > 0.01 µM; IC50 ([2]; read-out: BRG1 IP50): > 0.1 µM
CS(=O)(=O)n1ccc(C(=O)NCC(=O)Nc2nc(-c3cccc(-c4cnn(C5CC5)n4)c3)cs2)c1 [Compound 277],,,< 0.01,> 0.01,
"CN1CCc2cc(-c3csc(NC(=O)CNC(=O)c4ccn(S(C)(=O)=O)c4)n3)ccc2C1 [Compound 130, N-(2-((4-(2-methyl-1,2,3,4-tetrahydroisoquinolin-6-yl)thiazol-2-yl)amino)-2-oxoethyl)-1-(methylsulfonyl)-1H-pyrrole-3-carboxamide]",,,> 0.1,> 0.1,
"Cn1ccc(OCc2cccc(-c3csc(NC(=O)CNC(=O)c4ccn(C(C)(C)C)c4)n3)c2)n1 [Compound 119, 1-(tert-butyl)-N-(2-((4-(3-(((1-methyl-1H-pyrazol-3-yl)oxy)methyl)phenyl)thiazol-2-yl)amino)-2-oxoethyl)-1H-pyrrole-3-carboxamide]",,,> 0.01,> 0.1,
"Cc1cc(-c2cccc(-c3csc(NC(=O)CNC(=O)c4ccn(S(C)(=O)=O)c4)n3)c2)cc(C)n1 [Compound 81, N-(2-((4-(3-(2,6-dimethylpyridin-4-yl)phenyl)thiazol-2-yl)amino)-2-oxoethyl)-1-(methylsulfonyl)-1H-pyrrole-3-carboxamide]",,,< 0.01,< 0.01,
C[C@@H]1CN(c2cccc(-c3csc(NC(=O)CNC(=O)c4ccn(C(C)(C)C#N)c4)n3)n2)C[C@H](C)O1 [Compound 331],,,< 0.01,< 0.01,
CS(=O)(=O)n1ccc(C(=O)NCC(=O)Nc2nc(-c3cccc(N4C[C@H]5COC[C@H]5C4)c3)cs2)c1 [Compound 223],,,> 0.01,> 0.01,
"C[C@@H]1CC(c2cccc(-c3csc(NC(=O)CNC(=O)c4ccn(S(C)(=O)=O)c4)n3)n2)=C[C@H](C)O1 (racemic) [Compound 350, N-(2-((4-(6-((cis)-2,6-dimethyl-3,6-dihydro-2H-pyran-4-yl)pyridin-2-yl)thiazol-2-yl)amino)-2-oxoethyl)-1-(methylsulfonyl)-1H-pyrrole-3-carboxamide]",,,< 0.01,< 0.01,
COC[C@H](NC(=O)c1ccn(S(C)(=O)=O)c1)C(=O)Nc1nc(-c2cccc(N3CC(OC)C3)c2)cs1 [Compound 367],,,> 0.01,> 0.01,
C[C@@H]1CN(c2cc(F)cc(-c3csc(NC(=O)CNC(=O)c4ccn(S(C)(=O)=O)c4)n3)c2)C[C@H](C)O1 [Compound 295],,,< 0.01,< 0.01,
CS(=O)(=O)n1ccc(C(=O)NCC(=O)Nc2nc(-c3cccc(N4CC[C@H](O)[C@@H](F)C4)c3)cs2)c1 [Compound 190],,,< 0.01,< 0.01,
